We go through 7 compounds from patent publication US7432302B2, “Composition containing polyamine transport inhibitor and use thereof” (MediQuest Therapeutics, Inc., priority 2001, dated 2008).

The structures appear in SMILES notation. Where two headings read alike, the source gives them in different places.

Data set [1] concerns cell growth in the presence of DFMO. Nature of the data set: Growth inhibition assay in combination with DFMO. On Ave EC50 Value: 0.5 µM SPD. Type of data set: cell-based. Particulars: for EC50: 144 h. The method, then:
Medias were obtained from Mediatech, Inc. (Hemdon, Va.) and serums from Gibco BRL (Gaithersburg, Md.). 50 U/ml penicillin, 50 μg/ml streptomycin and 2 mM L-glutamine (all from Bio Whittaker, Walkersville, Md.) were included in all cultures. […] When cells were cultured with polyamines or ORI compounds, 1 mM aminoguanidine (AG; Sigma) was included to inhibit serum amine oxidase activity.

Data set [2] has as its system polyamine transporter. In words: Polyamine transport inhibition (3H-spermidine uptake, MDA-MB-231 cells). Type of data set: cell-based, human. As to the method: The Ki values were determined using double reciprocal Lineweaver-Burke plot analyses.
Data set [3] deals with cultured follicles. As to conditions: in culture media: DFMO 500 μM; N-butyl-1,3-diaminopropane 50 μM; cited from earlier work.
Data set [4] concerns the target T1, spermine synthase (Homo sapiens, UniProt P52788).
T1 sequence (P52788 1-366): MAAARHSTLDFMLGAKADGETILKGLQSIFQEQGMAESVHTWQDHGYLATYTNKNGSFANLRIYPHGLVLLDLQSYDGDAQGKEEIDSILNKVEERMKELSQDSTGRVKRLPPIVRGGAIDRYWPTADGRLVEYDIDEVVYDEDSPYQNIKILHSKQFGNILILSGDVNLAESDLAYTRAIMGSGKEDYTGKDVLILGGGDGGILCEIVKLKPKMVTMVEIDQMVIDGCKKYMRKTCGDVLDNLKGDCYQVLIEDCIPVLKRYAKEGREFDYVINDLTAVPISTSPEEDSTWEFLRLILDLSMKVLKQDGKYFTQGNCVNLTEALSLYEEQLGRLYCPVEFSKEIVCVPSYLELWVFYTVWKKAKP
Particulars: cited from earlier work.

In data set [5] the target is T2, ODC (Rattus norvegicus, UniProt P09057).
T2 construct: from tissue; host or cells: rat liver
T2 sequence (P09057 1-461): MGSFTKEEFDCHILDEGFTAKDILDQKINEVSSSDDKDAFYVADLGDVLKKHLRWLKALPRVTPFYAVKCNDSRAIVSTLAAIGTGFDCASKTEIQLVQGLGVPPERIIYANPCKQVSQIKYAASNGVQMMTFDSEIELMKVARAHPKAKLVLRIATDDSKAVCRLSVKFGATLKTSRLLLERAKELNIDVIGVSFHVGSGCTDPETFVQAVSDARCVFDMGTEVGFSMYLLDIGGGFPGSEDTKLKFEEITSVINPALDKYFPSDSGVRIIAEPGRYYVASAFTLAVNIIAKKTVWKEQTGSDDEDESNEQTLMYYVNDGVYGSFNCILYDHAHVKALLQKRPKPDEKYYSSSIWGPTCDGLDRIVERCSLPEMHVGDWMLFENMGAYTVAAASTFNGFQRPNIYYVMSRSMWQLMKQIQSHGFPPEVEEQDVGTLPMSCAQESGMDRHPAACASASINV
Particulars: cited from earlier work.

The subject of data set [6] is ODC activity. As to conditions: at 4 to 5 hr after TPA treatment; cited from earlier work.
For data set [7] the following is noted: rats, 10-day treatment with drug in drinking water; cited from earlier work.
The test system of data set [8] is levels of spermidine or spermine in rat prostate. Particulars: oral, 0.02% or 0.1% in drinking water; cited from earlier work.
Data set [9] has as its system epidermal ornithine decarboxylase activity. As to conditions: mice, 0.5% BHT in food for two weeks, UV radiation; cited from earlier work.

Take `CCCCCCCCCCCCCCCC(=O)NCCCC[C@H](N)C(=O)NCCCNCCCCNCCCN` [IA4]: in [1], the “potency in cell growth inhibition assay” value was “demonstrated potency”. Further, the EC50 in [1] (read-out: Ave EC50 Value) and in [1] (read-out: Ave EC50 value) was 130 nM throughout. Besides, the “potency in transporter inhibition assay” value in data set [2] is listed as “demonstrated potency”.
In the case of `CCCCNCCCN` [N-butyl-1,3-diaminopropane], the “effect on the growth of cultured follicles” value in data set [3] was “no effect”. Besides, in data set [4], the Ki is 11.9 nM.
`NCCCC(N)(CCl)C(=O)O` (centres unmarked) [—CH2Cl]: in data set [5] (Table 1, at 100 μM), the t1/2 result is “t1/2 = 22 min”. The Ki value result in data set [5] (Table 1 substrate analogs, apparent dissociation constant, rat liver enzyme) is “No satd kinetics”.
With `CCCCCCCCCCCCCC(=O)O[C@@H]1[C@@H](C)[C@@]2(O)[C@@H](C=C(CO)C[C@]3(O)C(=O)C(C)=C[C@@H]23)[C@@H]2C(C)(C)[C@]12OC(C)=O` [TPA, 12-O-tetradecanoyl-phorbol-13-acetate], in [6], the “peak ODC activity greater than control” value was 230 fold.
Regarding `CC1CCC(N)CC1` (centres unmarked) [Compound 4MCHA, 4-methylcyclohexylamine], the LD50 result in data set [7] was “more than 250 mg/kg”. Also, in data set [8], the “levels of spermidine or spermine in rat prostate” value is “significantly reduced levels”.
As to `NCCCNC1CCCCC1` [APCHA, N-(3-aminopropyl)cyclohexylamine], the LD50 in data set [7] is given as above 500 mg/kg. Also, the “levels of spermidine or spermine in rat prostate” value in data set [8] is “significantly reduced levels”.
As for `Cc1cc(C(C)(C)C)c(O)c(C(C)(C)C)c1` [BHT, butylated hydroxytoluene], the “inhibition of measured ODC activity” value in [9] is given as 70%.

As usually defined, the EC50 is the concentration giving half of the maximal effect. A word on the Ki: it is a dissociation constant, usually derived from enzyme kinetics or from competition with a known ligand. Usually LD50 stands for the dose at which mortality reaches 50%.
